System: Spodoptera littoralis (Egyptian cotton leaf worm)
Experiment: Spodoptera littoralis (Egyptian cotton leaf worm) feeding/contact activity assay on cotton leaf discs
Format: in vivo
Conditions: for Mortality (%) Observed (%): single active ingredient, L1 larvae, 3 days after infestation; for Mortality (%) Expected (%): component B alone, value printed in the Expected column
From the text: A synergistic effect exists whenever the action of an active ingredient combination is greater than the sum of the actions of the individual components. The action to be expected E for a given active ingredient combination obeys the so-called COLBY formula and can be calculated as follows (COLBY, S. R. “Calculating synergistic and antagonistic responses of herbicide combination”. Weeds, Vol. 15, pages 20-22 1967):
ppm=milligrams of active ingredient (a.i.) per liter X=% action by first active ingredient using p ppm of the active ingredient Y=% action by second active ingredient using q ppm of the active ingredient.
According to Colby, the expected (additive) action of active ingredients A+B using p+q ppm of active ingredient is
If the action actually observed O is greater than the expected action E, then the action of the combination is super-additive, i.e. there is a synergistic effect. In mathematical terms, synergism corresponds to a positive value for the difference of (O-E). In the case of purely complementary addition of activities (expected activity), said difference (O-E) is zero. A negative value of said difference (O-E) signals a loss of activity compared to the expected activity.
The synergistic biological activity of combinations of component (A) and component (B) as disclosed herein was assessed using a Spodoptera littoralis (Egyptian cotton leaf worm) feeding/contact activity assay. Cotton leaf discs were placed onto agar in 24-well microtiter plates and sprayed with aqueous test solutions prepared from 10′000 ppm DMSO stock solutions. After drying the leaf discs were infested with L1 larvae. The samples were assessed for mortality 3 days after infestation.

`O=C(Nc1ccc(F)c(NC(=O)C(F)F)c1F)c1cc(NC(=O)[C@H]2[C@H](c3cc(C(F)(F)F)cc(C(F)(F)F)c3)C2(Cl)Cl)ccc1Cl` [A-1] was tested. Which “Mortality (%) Observed (%)” value ([AI] 0.016 mg/L) did it give?
Its value is 0%.

What about the “Mortality (%) Observed (%)” value ([AI] 0.031 mg/L) of the same compound?
Its value is 0%.

And the “Mortality (%) Observed (%)” value ([AI] 0.062 mg/L)?
The value was 0%.

And the “Mortality (%) Observed (%)” value ([AI] 0.125 mg/L)?
The value was 0%.

What about the “Mortality (%) Observed (%)” value ([AI] 0.25 mg/L) of the same compound?
The value was 80%.

What about the “Mortality (%) Observed (%)” value ([AI] 0.5 mg/L) of the same compound?
Its value is 100%.

`C[n+]1c([O-])c(-c2ccccc2)c(=O)n2c1SC[C@@H]2c1cnc(Cl)s1` [B-4, fenmezoditiaz] was tested. Which “Mortality (%) Observed (%)” value ([AI] 15.625 mg/L) did it give?
Its value is 0%.

What about the “Mortality (%) Observed (%)” value ([AI] 31.25 mg/L) of the same compound?
The value was 0%.

And the “Mortality (%) Observed (%)” value ([AI] 62.5 mg/L)?
Its value is 0%.

For `CCS(=O)(=O)c1cccnc1-c1cnc(OCC(F)(F)C(F)(F)F)cn1` [B-10, 2-(3-ethylsulfonyl-2-pyridyl)-5-(2,2,3,3,3-pentafluoropropoxy)pyrazine], which “Mortality (%) Observed (%)” value ([AI] 0.625 mg/L) is on record?
The value was 0%.

And the “Mortality (%) Observed (%)” value ([AI] 1.25 mg/L)?
The value was 10%.

And the “Mortality (%) Observed (%)” value ([AI] 2.5 mg/L)?
The value was 50%.

And the “Mortality (%) Observed (%)” value ([AI] 5 mg/L)?
The value was 100%.

And the “Mortality (%) Observed (%)” value ([AI] 10 mg/L)?
The value was 100%.

`CCN(C(=O)c1cnn(C(C)C(C)C)c1C)c1ccnnc1` (stereo not drawn) [B-17, dimpropyridaz] was tested. Which “Mortality (%) Observed (%)” value ([AI] 15.625 mg/L) did it give?
The value was 0%.

What about the “Mortality (%) Observed (%)” value ([AI] 31.25 mg/L) of the same compound?
Its value is 0%.

And the “Mortality (%) Observed (%)” value ([AI] 62.5 mg/L)?
The value was 0%.

What about the “Mortality (%) Observed (%)” value ([AI] 125 mg/L) of the same compound?
The value was 0%.

What does the source list for `Cc1cc(Cl)cc(C)c1C1=C(O)C2(CCC3(CC2)OCCO3)NC1=O` [B-18, spidoxamat]?
Mortality (%) Expected (%) ([AI] 7.812 mg/L): 0%; Mortality (%) Expected (%) ([AI] 15.625 mg/L): 0%; Mortality (%) Expected (%) ([AI] 31.25 mg/L): 0%

With `O=c1c(-c2cccc(C(F)(F)F)c2)c([O-])[n+](Cc2cncnc2)c2ccccn12` [B-42, triflumezopyrim] as the compound, how does the “Mortality (%) Observed (%)” value ([AI] 15.625 mg/L) read?
The value was 0%.

And the “Mortality (%) Observed (%)” value ([AI] 31.25 mg/L)?
Its value is 0%.

And the “Mortality (%) Observed (%)” value ([AI] 62.5 mg/L)?
The value was 0%.

What about the “Mortality (%) Observed (%)” value ([AI] 125 mg/L) of the same compound?
Its value is 20%.

And the “Mortality (%) Observed (%)” value ([AI] 250 mg/L)?
Its value is 20%.

Which “Mortality (%) Observed (%)” value ([AI] 0.062 mg/L) does the source give for `CNC(=O)c1cc(Cl)cc(C)c1NC(=O)c1cc(Br)nn1-c1ncccc1Cl` [B-46, chlorantraniliprole] here?
Its value is 0%.

What about the “Mortality (%) Observed (%)” value ([AI] 0.125 mg/L) of the same compound?
Its value is 0%.

What about the “Mortality (%) Observed (%)” value ([AI] 0.25 mg/L) of the same compound?
Its value is 0%.

What about the “Mortality (%) Observed (%)” value ([AI] 0.5 mg/L) of the same compound?
Its value is 100%.

`CC(c1ccc(C(F)(F)F)nc1)S(C)(=O)=NC#N` (stereo not drawn) [B-55, sulfoxaflor] was tested. Which “Mortality (%) Observed (%)” value ([AI] 62.5 mg/L) did it give?
The value was 0%.

What about the “Mortality (%) Observed (%)” value ([AI] 125 mg/L) of the same compound?
The value was 0%.

And the “Mortality (%) Observed (%)” value ([AI] 250 mg/L)?
Its value is 10%.

— patent publication US20240389596A1, “INSECT, ACARINA AND NEMATODE PEST CONTROL” (priority 2021, published 2024)
